In patent publication EP2712863B1, “Novel inhibitors of bacterial biofilms and related methods” (Sequoia Sciences, Inc., priority 2012, dated 2014):
Values after ≈ are worked out from the molar mass of the structure shown. Where two headings read alike, the source gives them in different places.

Key:
P. aeruginosa = experiment: Biofilm growth assay (spreading biofilm on semi-solid agar); type: cell-based; conditions: Pseudomonas aeruginosa, concentration that reduces the area of the spreading biofilm by >= 85%, read-out: P. aeruginosa
Excerpt: (§1) "Biofilm Growth Assay" refers to an assay performed on semi-solid agar surface where the bacteria collectively move out from an inoculation point. To those skilled in the art, the act of bacteria collectively moving out from an inoculation point on a semi-solid surface may be referred to as swarming or a spreading biofilm. (Anderson, et al Microbiology, 2003, 149, 37-46; Daniels, et al. FEMS Microbiology Reviews, 2004, 28, 261-289). The procedure to perform this assay is described in detail in the Examples. This type of surface motility by bacteria has been reported in the literature by those skilled in the art.
(§2) The biofilm growth assay was carried out to measure swarming or biofilm spreading on semi-solid agar media in round plates (for example, 100 × 15 mm), also referred to as Petri dishes. For E. coli, the plates contained LB medium with 0.6% agar and 0.5% glucose. P. aeruginosa plates were made with M8 agar supplemented with 0.2% glucose, 100 µM CaCl2, 1 mM MgSO4, and 0.5% Casamino acids. The agar plates of this assay consisted of 0.4% to 0.7% agar (Bacto or Noble agar), although other media may also be used as described in the literature and known to those skilled in the art. Test compounds at the desired concentration were added to the cooled, autoclaved media. Portions of the media were then poured into the plates (20 mL/plate), and the plates allowed to dry at room temperature for approximately 3 to 4 hours. Alternatively, however, plates may be dried in a laminar flow hood for approximately fifteen to twenty minutes. Overnight cultures were grown in a 37°C shaker in LB (E. coli) or TSB (P. aeruginosa). Plates were inoculated by placing 5 µL of the appropriate overnight culture in the centers of the plates. The plates then were incubated overnight at 37°C. The area of the zone of spreading bacteria was then measured and replicates are averaged. Percent inhibition was calculated as 100 × (area without compound - area with compound)/(area without compound). An active compound was considered that which reduces the area of the spreading biofilm compared to negative controls by greater than or equal to 85%. The values shown in Table 1 are the concentrations of compounds (µg/ml) tested in the biofilm growth assay that reduce the area of the spreading biofilm compared to negative controls by greater than or equal to 85% unless noted differently in Table 1. A > ("greater than" symbol) as used in Table 1 is well understood to those skilled in the art as an indication that the listed concentration was not effective at this concentration.
(§3) All of the compounds shown in Tables 2, 3, 4, and 5, below, were prepared semi-synthetically from oleanolic acid, except for Compounds 2 and 3. Compound 2 was prepared from ursolic acid. Compound 3 was prepared from hederagenin, but could also be prepared from an oleanolic acid analog with a hydroxyl at C23 or C24. These compounds were tested in the spreading biofilm assay according to the methods detailed in Example I, above. The values shown in Tables 2, 3, 4, and 5 are the concentrations of compounds tested in the biofilm growth assay that reduce the area of the spreading biofilm compared to negative controls by greater than or equal to 85%. Table 2. Compound 1 and its Analogs and their inhibitory concentrations in the biofilm growth assay as detailed in Example I, above

E. coli = experiment: as above; type: cell-based; conditions: Escherichia coli, concentration that reduces the area of the spreading biofilm by >= 85%, read-out: E. coli
Excerpt: as §1, §2, §3

Compound | IC85 (P. aeruginosa; Table 3) [µg/mL] | IC85 (E. coli; Table 3) [µg/mL] | other results
CC1(C)CC[C@]2(C(=O)O)CC[C@]3(C)C(=C(c4cccc(CN)c4)CC4[C@@]5(C)Cc6c(n[nH]c6N)C(C)(C)C5CC[C@]43C)C2C1 (stereo partly drawn) [Compound 18, (4aS,6aS,6bR,13aR)-12-Amino-15-(3-(aminomethyl)phenyl)-2,2,6a,6b,9,9,13a-heptamethyl-2,3,4,4a,5,6,6a,6b,7,8,8a,9,11,13,13a,13b,14,15b-octadecahydro-1H-chryseno[1,2-f]indazole-4a-carboxylic acid] | 0.5 (≈ 0.835 µM) | 1 (≈ 1.67 µM) | –
CC1(C)CC[C@]2(C(=O)O)CC[C@]3(C)C(=C(c4ccc(CN5CCOCC5)cc4)CC4[C@@]5(C)Cc6c(n[nH]c6N)C(C)(C)C5CC[C@]43C)C2C1 (stereo partly drawn) [Compound 52, (4aS,6aS,6bR,13aR)-12-Amino-2,2,6a,6b,9,9,13a-heptamethyl-15-(4-(morpholinomethyl)phenyl)-2,3,4,4a,5,6,6a,6b,7,8,8a,9,11,13,13a,13b,14,15b-octadecahydro-1H-chryseno[1,2-f]indazole-4a-carboxylic acid] | 1 (≈ 1.49 µM) | 2 (≈ 2.99 µM) | –
CN(C)CCc1c([C@]23CCC(C)(C)CC2C2=CCC4[C@@]5(C)Cc6c(n[nH]c6N)C(C)(C)C5CC[C@@]4(C)[C@]2(C)CC3)n[nH]c1O (stereo partly drawn) [Compound 85, 3-((4aS,6aS,6bR,13aR)-12-Amino-2,2,6a,6b,9,9,13a-heptamethyl-2,3,4,4a,5,6,6a,6b,7,8,8a,9,11,13,13a,13b,14,15b-octadecahydro-1H-chryseno[1,2-f]indazol-4a-yl)-4-(2-(dimethylamino)ethyl)-1H-pyrazol-5-ol] | – | – | IC85 (P. aeruginosa; Table 4): 0.5 µg/mL (≈ 0.829 µM); IC85 (E. coli; Table 4): 1 µg/mL (≈ 1.66 µM)
CC1(C)CC[C@]2(c3n[nH]c(O)c3F)CC[C@]3(C)C(=CCC4[C@@]5(C)Cc6c(n[nH]c6N)C(C)(C)C5CC[C@]43C)C2C1 (stereo partly drawn) [Compound 83, 3-((4aS,6aS,6bR,13aR)-12-Amino-2,2,6a,6b,9,9,13a-heptamethyl-2,3,4,4a,5,6,6a,6b,7,8,8a,9,11,13,13a,13b,14,15b-octadecahydro-1H-chryseno[1,2-f]indazol-4a-yl)-4-fluoro-1H-pyrazol-5-ol] | – | – | IC85 (P. aeruginosa; Table 4): 0.25 µg/mL (≈ 0.455 µM); IC85 (E. coli; Table 4): 0.5 µg/mL (≈ 0.909 µM)
CC1(C)CC[C@]2(C(=O)O)CC[C@]3(C)C(=C(c4ccco4)CC4[C@@]5(C)Cc6c(n[nH]c6N)C(C)(C)C5CC[C@]43C)C2C1 (stereo partly drawn) [Compound 7, (4aS,6aS,6bR,13aR)-12-Amino-15-(furan-2-yl)-2,2,6a,6b,9,9,13a-heptamethyl-2,3,4,4a,5,6,6a,6b,7,8,8a,9,11,13,13a,13b,14,15b-octadecahydro-1H-chryseno[1,2-f]indazole-4a-carboxylic acid] | – | – | IC85 (P. aeruginosa; Table 2): 0.25 µg/mL (≈ 0.447 µM); IC85 (E. coli; Table 2): 1 µg/mL (≈ 1.79 µM)
C/C=C/C1=C2[C@@H]3CC(C)(C)CC[C@]3(C(=O)O)CC[C@@]2(C)[C@]2(C)CC[C@H]3C(C)(C)c4n[nH]c(N)c4C[C@]3(C)C2C1 (stereo partly drawn) [Compound 5, (4aS,6aS,6bR,8aR,13aR,15bS)-12-Amino-2,2,6a,6b,9,9,13a-heptamethyl-15-((E)-prop-1-enyl)-2,3,4,4a,5,6,6a,6b,7,8,8a,9,11,13,13a,13b,14,15b-octadecahydro-1H-chryseno[1,2-f]indazole-4a-carboxylic acid] | – | – | IC85 (P. aeruginosa; Table 2): 0.5 µg/mL (≈ 0.937 µM); IC85 (E. coli; Table 2): 1 µg/mL (≈ 1.87 µM)
CC1(C)CC[C@]2(C(=O)O)CC[C@]3(C)C(=C(Cl)CC4[C@@]5(C)Cc6c(n[nH]c6N)C(C)(C)C5CC[C@]43C)C2C1 (stereo partly drawn) [Compound 24, (4aS,6aS,6bR,13aR)-12-Amino-15-chloro-2,2,6a,6b,9,9,13a-heptamethyl-2,3,4,4a,5,6,6a,6b,7,8,8a,9,11,13,13a,13b,14,15b-octadecahydro-1H-chryseno[1,2-f]indazole-4a-carboxylic acid] | 0.5 (≈ 0.947 µM) | 1 (≈ 1.89 µM) | –
CC1(C)CC[C@]2(C(=O)Sc3nnc(N)[nH]3)CC[C@]3(C)C(=C(c4cccnc4)CC4[C@@]5(C)Cc6c(n[nH]c6N)C(C)(C)[C@@H]5CC[C@]43C)[C@@H]2C1 (stereo partly drawn) [Compound 91, (4aS,6aS,6bR,8aR,13aR,15bS)-S-5-Amino-4H-1,2,4-triazol-3-yl 12-amino-2,2,6a,6b,9,9,13a-heptamethyl-15-(pyridin-3-yl)-2,3,4,4a,5,6,6a,6b,7,8,8a,9,11,13,13a,13b,14,15b-octadecahydro-1H-chryseno[1,2-f]indazole-4a-carbothioate] | – | – | IC85 (P. aeruginosa; Table 5): 1 µg/mL (≈ 1.49 µM); IC85 (E. coli; Table 5): 1 µg/mL (≈ 1.49 µM)
CC1(C)CC[C@]2(C(=O)O)CC[C@]3(C)C(=C(c4cncnc4)CC4[C@@]5(C)Cc6c(n[nH]c6N)C(C)(C)[C@@H]5CC[C@]43C)[C@@H]2C1 (stereo partly drawn) [Compound 30, (4aS,6aS,6bR,8aR,13aR,15bS)-12-Amino-2,2,6a,6b,9,9,13a-heptamethyl-15-(pyrimidin-5-yl)-2,3,4,4a,5,6,6a,6b,7,8,8a,9,11,13,13a,13b,14,15b-octadecahydro-1H-chryseno[1,2-f]indazole-4a-carboxylic acid] | 2 (≈ 3.5 µM) | 1 (≈ 1.75 µM) | –
CC1(C)CC[C@]2(c3n[nH]c(O)c3CCN)CC[C@]3(C)C(=CCC4[C@@]5(C)Cc6c(n[nH]c6N)C(C)(C)C5CC[C@]43C)C2C1 (stereo partly drawn) [Compound 84, 3-((4aS,6aS,6bR,13aR)-12-Amino-2,2,6a,6b,9,9,13a-heptamethyl-2,3,4,4a,5,6,6a,6b,7,8,8a,9,11,13,13a,13b,14,15b-octadecahydro-1H-chryseno[1,2-f]indazol-4a-yl)-4-(2-aminoethyl)-1H-pyrazol-5-ol] | – | – | IC85 (P. aeruginosa; Table 4): 0.125 µg/mL (≈ 0.217 µM); IC85 (E. coli; Table 4): 0.5 µg/mL (≈ 0.87 µM)
Cn1cc(C2=C3[C@@H]4CC(C)(C)CC[C@]4(C(=O)O)CC[C@@]3(C)[C@]3(C)CC[C@H]4C(C)(C)c5n[nH]c(N)c5C[C@]4(C)C3C2)cn1 (stereo partly drawn) [Compound 28, (4aS,6aS,6bR,8aR,13aR,15bS)-12-Amino-2,2,6a,6b,9,9,13a-heptamethyl-15-(1-methyl-1H-pyrazol-4-yl)-2,3,4,4a,5,6,6a,6b,7,8,8a,9,11,13,13a,13b,14,15b-octadecahydro-1H-chryseno[1,2-f]indazole-4a-carboxylic acid] | 1 (≈ 1.74 µM) | 2 (≈ 3.49 µM) | –
CC1(C)CC[C@]2(C(=O)Nc3cc(S)n[nH]3)CC[C@]3(C)C(=CCC4[C@@]5(C)Cc6c(n[nH]c6N)C(C)(C)C5CC[C@]43C)C2C1 (stereo partly drawn) [Compound 79, (4aS,6aS,6bR,13aR)-12-Amino-N-(3-mercapto-1H-pyrazol-5-yl)-2,2,6a,6b,9,9,13a-heptamethyl-2,3,4,4a,5,6,6a,6b,7,8,8a,9,11,13,13a,13b,14,15b-octadecahydro-1H-chryseno[1,2-f]indazole-4a-carboxamide] | – | – | IC85 (P. aeruginosa; Table 4): 0.25 µg/mL (≈ 0.423 µM); IC85 (E. coli; Table 4): 0.5 µg/mL (≈ 0.846 µM)
C=CC1=C2[C@@H]3CC(C)(C)CC[C@]3(C(=O)O)CC[C@@]2(C)[C@]2(C)CC[C@H]3C(C)(C)c4n[nH]c(N)c4C[C@]3(C)C2C1 (stereo partly drawn) [Compound 13, (4aS,6aS,6bR,8aR,13aR,15bS)-12-Amino-2,2,6a,6b,9,9,13a-heptamethyl-15-vinyl-2,3,4,4a,5,6,6a,6b,7,8,8a,9,11,13,13a,13b,14,15b-octadecahydro-1H-chryseno[1,2-f]indazole-4a-carboxylic acid] | 0.5 (≈ 0.962 µM) | 1 (≈ 1.92 µM) | –
CC1(C)CC[C@]2(C(=O)O)CC[C@]3(C)C(=C(c4coc(CN5CCNCC5)c4)CC4[C@@]5(C)Cc6c(n[nH]c6N)C(C)(C)C5CC[C@]43C)C2C1 (stereo partly drawn) [Compound 39, (4aS,6aS,6bR,13aR)-12-Amino-2,2,6a,6b,9,9,13a-heptamethyl-15-(5-(piperazin-1-ylmethyl)furan-3-yl)-2,3,4,4a,5,6,6a,6b,7,8,8a,9,11,13,13a,13b,14,15b-octadecahydro-1H-chryseno[1,2-f]indazole-4a-carboxylic acid] | 1 (≈ 1.52 µM) | 2 (≈ 3.04 µM) | –
